Reference: PubChem BioAssay (NCI)
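Results reflect a 48-hour exposure of cells in 96-well plates to compound at five concentrations. GI50 = concentration required for 50% inhibition of growth. TGI denotes the concentration required for complete inhibition of growth.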

Legend:
Experiment in all cases: DTP human tumour cell line panel, 48 h; in the data active means GI50 below about 0.43 µM; inactive means the rest
A498 renal = test system: A498 renal
ACHN renal = test system: ACHN renal
CAKI-1 renal = test system: CAKI-1 renal
CCRF-CEM leukemia = test system: CCRF-CEM leukemia
DU-145 prostate = test system: DU-145 prostate
HL-60(TB) leukemia = test system: HL-60(TB) leukemia
HOP-92 NSCLC = test system: HOP-92 NSCLC
HS 578T breast = test system: HS 578T breast
K-562 leukemia = test system: K-562 leukemia
KM12 colon = test system: KM12 colon
NCI-H23 lung = test system: NCI-H23 lung
NCI-H522 lung = test system: NCI-H522 lung
NCI/ADR-RES ovarian = test system: NCI/ADR-RES ovarian
OVCAR-3 ovarian = test system: OVCAR-3 ovarian
OVCAR-8 ovarian = test system: OVCAR-8 ovarian
PC-3 prostate = test system: PC-3 prostate
RPMI-8226 leukemia = test system: RPMI-8226 leukemia
RXF 393 renal = test system: RXF 393 renal
SF-268 CNS = test system: SF-268 CNS
SF-539 CNS = test system: SF-539 CNS
SK-MEL-28 melanoma = test system: SK-MEL-28 melanoma
SK-OV-3 ovarian = test system: SK-OV-3 ovarian
SNB-75 CNS = test system: SNB-75 CNS
SW-620 colon = test system: SW-620 colon
TK-10 renal = test system: TK-10 renal
UACC-62 melanoma = test system: UACC-62 melanoma
UO-31 renal = test system: UO-31 renal
786-0 renal = test system: 786-0 renal
A549 NSCLC = test system: A549 NSCLC
BT-549 breast = test system: BT-549 breast
EKVX NSCLC = test system: EKVX NSCLC
HCC-2998 colon = test system: HCC-2998 colon
HCT-116 colon = test system: HCT-116 colon
HCT-15 colon = test system: HCT-15 colon
HOP-62 NSCLC = test system: HOP-62 NSCLC
HT29 colon = test system: HT29 colon
IGROV1 ovarian = test system: IGROV1 ovarian
LOX IMVI melanoma = test system: LOX IMVI melanoma
M14 melanoma = test system: M14 melanoma
MALME-3M melanoma = test system: MALME-3M melanoma
MCF7 breast = test system: MCF7 breast
MDA-MB-231 breast = test system: MDA-MB-231 breast
MDA-MB-435 = test system: MDA-MB-435
MOLT-4 leukemia = test system: MOLT-4 leukemia
NCI-H226 lung = test system: NCI-H226 lung
NCI-H460 lung = test system: NCI-H460 lung
OVCAR-4 ovarian = test system: OVCAR-4 ovarian
OVCAR-5 ovarian = test system: OVCAR-5 ovarian
SF-295 CNS = test system: SF-295 CNS
SK-MEL-2 melanoma = test system: SK-MEL-2 melanoma
SK-MEL-5 melanoma = test system: SK-MEL-5 melanoma
SN12C renal = test system: SN12C renal
SNB-19 CNS = test system: SNB-19 CNS
SR leukemia = test system: SR leukemia
T-47D breast = test system: T-47D breast
U251 CNS = test system: U251 CNS
UACC-257 melanoma = test system: UACC-257 melanoma

NC(N)=Nc1ccc(Oc2cccc(Nc3ccc(Cl)cc3)c2)cn1
5.08 µM: TGI (RPMI-8226 leukemia)
4.58 µM: TGI (KM12 colon)
4.52 µM: TGI (HS 578T breast)
3.37 µM: TGI (RXF 393 renal)
3.12 µM: TGI (SK-MEL-28 melanoma)
3.24 µM: TGI (NCI-H23 lung)
inactive: GI50 (A498 renal) 1170 nM | GI50 (ACHN renal) 1.73 µM | GI50 (CAKI-1 renal) 1640 nM | GI50 (CCRF-CEM leukemia) 2040 nM | GI50 (DU-145 prostate) 1760 nM | GI50 (HL-60(TB) leukemia) 2520 nM | GI50 (HOP-92 NSCLC) 1070 nM | GI50 (HS 578T breast) 1990 nM | GI50 (K-562 leukemia) 2660 nM | GI50 (KM12 colon) 2080 nM | GI50 (NCI-H23 lung) 1660 nM | GI50 (NCI-H522 lung) 1530 nM | GI50 (NCI/ADR-RES ovarian) 4.05 µM | GI50 (OVCAR-3 ovarian) 1800 nM | GI50 (OVCAR-8 ovarian) 1970 nM | GI50 (PC-3 prostate) 1.46 µM | GI50 (RPMI-8226 leukemia) 2020 nM | GI50 (RXF 393 renal) 1780 nM | GI50 (SF-268 CNS) 1720 nM | GI50 (SF-539 CNS) 1650 nM | GI50 (SK-MEL-28 melanoma) 1670 nM | GI50 (SK-OV-3 ovarian) 2110 nM | GI50 (SNB-75 CNS) 1270 nM | GI50 (SW-620 colon) 1830 nM | GI50 (TK-10 renal) 1690 nM | GI50 (UACC-62 melanoma) 1740 nM | GI50 (UO-31 renal) 1710 nM
3.28 µM: TGI (UACC-62 melanoma) | TGI (UO-31 renal)
4.75 µM: TGI (HL-60(TB) leukemia)
3.13 µM: TGI (ACHN renal) | TGI (NCI-H522 lung) | TGI (SF-539 CNS)
8.21 µM: TGI (K-562 leukemia)
3.3 µM: TGI (TK-10 renal)
2660 nM: TGI (A498 renal)
3.75 µM: TGI (SF-268 CNS)
3.55 µM: TGI (SW-620 colon)
4.46 µM: TGI (OVCAR-8 ovarian)
2570 nM: TGI (SNB-75 CNS)
3.17 µM: TGI (CAKI-1 renal)
5.27 µM: TGI (CCRF-CEM leukemia)
2390 nM: TGI (HOP-92 NSCLC)
3.27 µM: TGI (DU-145 prostate)
2840 nM: TGI (PC-3 prostate)
4.16 µM: TGI (SK-OV-3 ovarian)
3.63 µM: TGI (OVCAR-3 ovarian)
20.5 µM: TGI (NCI/ADR-RES ovarian)

Cc1cn(-c2cc(NC(=O)c3cncc(C#Cc4cnc5ccc(OCCCS(C)(=O)=O)nn45)c3)cc(C(F)(F)F)c2)cn1
2.51 µM: TGI (HL-60(TB) leukemia)
3 µM: TGI (NCI-H522 lung)
6.98 µM: TGI (SF-268 CNS)
6.71 µM: TGI (MOLT-4 leukemia)
7.03 µM: TGI (HS 578T breast)
49.1 µM: TGI (NCI-H226 lung)
49.4 µM: TGI (M14 melanoma)
3.22 µM: TGI (HCT-116 colon)
10.5 µM: TGI (SK-MEL-5 melanoma)
> 100 µM: TGI (786-0 renal) | TGI (A549 NSCLC) | TGI (ACHN renal) | TGI (DU-145 prostate) | TGI (EKVX NSCLC) | TGI (HCC-2998 colon) | TGI (HCT-15 colon) | TGI (HOP-62 NSCLC) | TGI (HT29 colon) | TGI (IGROV1 ovarian) | TGI (K-562 leukemia) | TGI (MDA-MB-231 breast) | TGI (MDA-MB-435) | TGI (NCI-H460 lung) | TGI (NCI/ADR-RES ovarian) | TGI (OVCAR-3 ovarian) | TGI (OVCAR-4 ovarian) | TGI (OVCAR-5 ovarian) | TGI (OVCAR-8 ovarian) | TGI (SF-295 CNS) | TGI (SK-MEL-28 melanoma) | TGI (SK-OV-3 ovarian) | TGI (SN12C renal) | TGI (SNB-19 CNS) | TGI (SW-620 colon) | TGI (T-47D breast) | TGI (TK-10 renal) | TGI (U251 CNS) | TGI (UACC-257 melanoma) | TGI (UACC-62 melanoma) | TGI (UO-31 renal)
active: GI50 (CCRF-CEM leukemia) 389 nM | GI50 (HCT-116 colon) 317 nM | GI50 (HL-60(TB) leukemia) 401 nM | GI50 (HOP-92 NSCLC) 188 nM | GI50 (K-562 leukemia) 128 nM | GI50 (MALME-3M melanoma) 397 nM | GI50 (MCF7 breast) 310 nM | GI50 (SNB-75 CNS) 129 nM | GI50 (SR leukemia) 303 nM
3.32 µM: TGI (RXF 393 renal)
5.11 µM: TGI (MALME-3M melanoma)
4.82 µM: TGI (SR leukemia)
> 100000 nM: TGI (A498 renal) | TGI (PC-3 prostate)
7.35 µM: TGI (SF-539 CNS)
11.8 µM: TGI (CAKI-1 renal)
713 nM: TGI (HOP-92 NSCLC)
inactive: GI50 (786-0 renal) 2010 nM | GI50 (A498 renal) > 100000 nM | GI50 (A549 NSCLC) 5.34 µM | GI50 (ACHN renal) 4.76 µM | GI50 (BT-549 breast) 1700 nM | GI50 (CAKI-1 renal) 501 nM | GI50 (DU-145 prostate) 1180 nM | GI50 (EKVX NSCLC) 2350 nM | GI50 (HCC-2998 colon) 1940 nM | GI50 (HCT-15 colon) 5.84 µM | GI50 (HOP-62 NSCLC) 1140 nM | GI50 (HS 578T breast) 1430 nM | GI50 (HT29 colon) 706 nM | GI50 (IGROV1 ovarian) 527 nM | GI50 (LOX IMVI melanoma) 875 nM | GI50 (M14 melanoma) 1100 nM | GI50 (MDA-MB-231 breast) 430 nM | GI50 (MDA-MB-435) 1490 nM | GI50 (MOLT-4 leukemia) 635 nM | GI50 (NCI-H226 lung) 922 nM | GI50 (NCI-H460 lung) 3 µM | GI50 (NCI-H522 lung) 1210 nM | GI50 (NCI/ADR-RES ovarian) > 100 µM | GI50 (OVCAR-3 ovarian) 2510 nM | GI50 (OVCAR-4 ovarian) 5.78 µM | GI50 (OVCAR-5 ovarian) 1790 nM | GI50 (OVCAR-8 ovarian) 649 nM | GI50 (PC-3 prostate) 5.88 µM | GI50 (RPMI-8226 leukemia) 2550 nM | GI50 (RXF 393 renal) 1140 nM | GI50 (SF-268 CNS) 1410 nM | GI50 (SF-295 CNS) 29.1 µM | GI50 (SF-539 CNS) 552 nM | GI50 (SK-MEL-2 melanoma) 427 nM | GI50 (SK-MEL-28 melanoma) 1510 nM | GI50 (SK-MEL-5 melanoma) 1550 nM | GI50 (SK-OV-3 ovarian) > 100000 nM | GI50 (SN12C renal) 551 nM | GI50 (SNB-19 CNS) 2570 nM | GI50 (SW-620 colon) 462 nM | GI50 (T-47D breast) 1760 nM | GI50 (TK-10 renal) 3210 nM | GI50 (U251 CNS) 2670 nM | GI50 (UACC-257 melanoma) 3.98 µM | GI50 (UACC-62 melanoma) 706 nM | GI50 (UO-31 renal) 3590 nM
3.36 µM: TGI (KM12 colon)
2880 nM: TGI (SK-MEL-2 melanoma)
1760 nM: TGI (SNB-75 CNS)
92.6 µM: TGI (RPMI-8226 leukemia)
2520 nM: TGI (MCF7 breast)
27.1 µM: TGI (LOX IMVI melanoma)
10.6 µM: TGI (BT-549 breast)
3.61 µM: TGI (CCRF-CEM leukemia)
